Literature values as cited in US20110136157A1, “Copper regulation evaluation and therapy” (priority 2005, published 2011).
Read-outs that look alike come from different tables or passages of the source.

Experiments:
[1] = tested on: Wilson's disease patients; conditions: long-term use

solubility (alcohol) | solubility (water) | SMILES | long-term or major side effects [1]
slightly soluble in alcohol | freely soluble in water | CC(C)(S)[C@@H](N)C(=O)O [Penicillamine, 3-mercapto-D-valine] | –
– | – | CC(=O)[O-].CC(=O)[O-].[Zn+2] [Zinc acetate] | has not shown any long-term or major side effects
